Patent publication US20240207380A1, “NOVEL PEPTIDE TARGETING DENDRITIC CELLS, AND COMPOSITION FOR TREATING CANCER COMPRISING SAME” (INDUSTRY FOUNDATION OF CHONNAM NATIONAL UNIVERSITY, priority 2021, published 2024)
Entries after “also recorded” stand apart in the source; their conditions may differ. Ends that are not written are not given here. * marks the point of attachment. Biotin = O=C1N[C@H]2[C@H](CS[C@H]2CCCCC(=O)*)N1

B1: FlaB: flagellin B (FlaB) derived from Vibrio vulnificus, SEQ ID NO: 23 (protein)
chain: MAVNVNTNVAAMTAQRYLNNANSAQQTSMERLSSGFKINSAKDDAAGLQISNRLNVQSRGLDVAVRNANDGISIAQTAEGAMNETTNILQRMRDLSLQSANGSNSKSERVAIQEEVTALNDELNRIAETTSFGGNKLLNGTYGTKAMQIGADNGEAVMLSLKDMRSDNVMMGGVSYQAEEGKDKNWNVAAGDNDLTIALTDSFGNEQEIEINAKAGDDIEELATYINGQTDLVKASVGEGGKLQIFAGNNKVQGEIAFSGSLAGELGLGEGKNVTVDTIDVTTVQGAQESVAIVDAALKYVDSHRAELGAFQNRFNHAISNLDNINENVNASKSRIKDTDFAKETTQLTKTQILSQASSSILAQAKQAPNSALSLLG
modifications: FlaB (F)
B2: EF: recombinant fusion of four copies of E7ΔNLS and FlaB, SEQ ID NO: 24 (protein)
chain: MIDGPAGQAEPDRAHYNIVTFCCKCDSTLRLCVQSTHVDIRTLEDLLMGTLGIVCPICSQKPEFIDGPAGQAEPDRAHYNIVTFCCKCDSTLRLCVQSTHVDIRTLEDLLMGTLGIVCPICSQKPVDIDGPAGQAEPDRAHYNIVTFCCKCDSTLRLCVQSTHVDIRTLEDLLMGTLGIVCPICSQKPVDIDGPAGQAEPDRAHYNIVTFCCKCDSTLRLCVQSTHVDIRTLEDLLMGTLGIVCPICSQKPKLMAVNVNTNVAAMTAQRYLNNANSAQQTSMERLSSGFKINSAKDDAAGLQISNRLNVQSRGLDVAVRNANDGISIAQTAEGAMNETTNILQRMRDLSLQSANGSNSKSERVAIQEEVTALNDELNRIAETTSFGGNKLLNGTYGTKAMQIGADNGEAVMLSLKDMRSDNVMMGGVSYQAEEGKDKNWNVAAGDNDLTIALTDSFGNEQEIEINAKAGDDIEELATYINGQTDLVKASVGEGGKLQIFAGNNKVQGEIAFSGSLAGELGLGEGKNVTVDTIDVTTVQGAQESVAIVDAALKYVDSHRAELGAFQNRFNHAISNLDNINENVNASKSRIKDTDFAKETTQLTKTQILSQASSSILAQAKQAPNSALSLLGLEHHHHHH
modifications: 4xE7deltaNLS::FlaB (EF)

What was measured:
[1] = tested on: CD11c^+ cells from cervical lymph nodes; test: In vivo dendritic cell targeting after intranasal administration; set-up: species or system BALB/c mice; settings: 6.5 hours post-inoculation, compared to scrambled-peptide negative control
Method: The peptide at appropriate concentrations in a total volume of 10 μl/nostril was given intranasally to BALB/c mice. A scrambled peptide previously shown to be nonspecific to DCs was used as a negative control. At 6.5 hours post-inoculation, mice were sacrificed, and their cLNs were harvested. Single-cell suspensions were prepared by gently tearing the LN capsule. After gentle washing in 1×PBS, cells were stained with anti-mouse CD11c^+ APC-conjugated Ab (eBioscience, Clone: N418, 170114-82) and streptavidin-AF488, and FACS analysis was performed.

[2] = tested on: cervical lymph node cells, splenic dendritic cells, and bone marrow-derived dendritic cell; test: Cellular uptake of DC-targeting peptides in lymph node cells, splenic DCs and BMDCs (FACS); type: cell-based, mice; settings: biotinylated peptides, 2 hours, FACS gated on CD11c+
Method: (§1) Bone marrow (BM) cells were isolated by flushing femurs and tibias of C57BL/6 mice, and red blood cells (RBCs) were depleted by ACK lysis (Gibco, A10492-01). The cells were centrifuged and strained through a 70 μm filter before being resuspended in RPMI 1640 supplemented with 10% heat-inactivated FBS, 100 units/ml penicillin, and 100 μg/ml streptomycin. The cells were resuspended in complete RPMI 1640 culture medium containing GM-CSF (10 ng/ml; R&D Systems, 415-ML-010) and IL4 (10 ng/ml; R&D Systems, 415-ML-010), inoculated into a cell culture dish, and cultured at 37° C. and 5% CO2. The culture medium was refreshed every two days. On day 7 or 8, DCs loosely bound to the bottom were collected by gentle pipetting. Splenic DCs were prepared by CD11c+ MicroBeads MACS (Miltenyi Biotec, 130-052-001) following the manufacturer's instructions.
(§2) Peptides were synthesized using […] chemistry, purified using high-pressure liquid chromatography to more than 95% purity, and biotinylated in the side chain (AnyGen Inc., South Korea). Peptides were dissolved in appropriate solvents according to the manufacturer's instructions to a concentration of 0.5 mg/ml. To test CD11c^+ cell targeting by the synthesized peptides, cLNs, splenic DCs, and BMDCs were treated with the 6 peptides for 2 hours in RPMI 1640 medium. After incubation with peptides, the cells were harvested, washed and stained with anti-mouse CD11c^+ APC-conjugated Ab (eBioscience, Clone: N418, 170114-82) and streptavidin-AF488. Cells were FACS analyzed by gating upon the CD11c^+ cell population, and the results are depicted in FIGS. 6 and 7.

CD11c^+-BMDC = test: Cellular uptake of DC-targeting peptides by bone marrow-derived dendritic cells (FACS); type: cell-based, C57BL/6 mice; settings: biotinylated peptides, 2 hours in RPMI 1640, FACS gated on CD11c+, compared with negative control
Method: as §1, §2

TC-1 cells = test: Efficacy of E7ΔNLS as tumor antigen in TC-1 tumor-bearing mice; type: in vivo, C57BL/6 mice; settings: peritumoral injection three times at intervals of five days; 4 μg FlaB, 10 μg E7FL, 8 μg E7ΔNLS alone or combined
Method: Female SPF C57BL/6 mice 7 to 8 weeks old were purchased from ORIENT (Seongnam-si, Gyeonggi-do, Korea). TC-1 cells were cultured in RPMI 1640 medium supplemented with 10% heat-inactivated FIBS, 100 units/ml penicillin, and 100 μg/ml streptomycin at 37° C. under 5% CO2. Tumors were established in mice by subcutaneous injection of 5×10^4 TC-1 cells in 100 μl of PBS into the right mid-flank of each mouse. […] Tumor growth was monitored every three days. The tumor volume was calculated with formula V=(tumor length)×(tumor width)×(tumor height)/2.

[3] = tested on: Bone marrow-derived dendritic cells (BMDCs); test: Antigen-presenting cell activation (CD80 and CD86 on BMDC surface); type: cell-based, C57BL/6 mice; settings: 0.5 μg/ml, 24 hours
Description: The cells were stained on ice with fluorophore-labeled antibodies before flow cytometry analysis.

[4] = tested on: Bone marrow-derived dendritic cells (BMDCs); test: Cellular uptake of EF and DEF in BMDCs (flow cytometry); type: cell-based, C57BL/6 mice; settings: 2 hours, anti-FlaB staining, FACS gated on CD11c+
Method: Cells treated with PBS alone were used as a negative control. After incubation, the cells were washed twice with cold 1×PBS containing 3% FBS and then stained with anti-mouse CD11c^+ antibody (eBioscience, Clone: N418, 25-0114-82) for 1 hour at 4° C. and fixed with 4% paraformaldehyde (T&I, BPP-9004) for 10 minutes at room temperature. The cells were permeabilized using a permeabilization kit according to the manufacturer's instructions (Invitrogen, 00-8333-56) and stained with anti-FlaB antibodies, followed by FACS analysis by gating upon the CD11c^+ population. The results are depicted in FIG. 14.

TLR5 = target: T1, TLR5 (Homo sapiens, UniProt O60602); type: cell-based; settings: HEK-Blue hTLR5 cells
T1 construct: host or cells: HEK-Blue hTLR5 cells (HEK293-derived reporter line, own knowledge: stably transfected with the human TLR5 gene and an NF-kB-inducible SEAP reporter)
T1 sequence (O60602 21-858): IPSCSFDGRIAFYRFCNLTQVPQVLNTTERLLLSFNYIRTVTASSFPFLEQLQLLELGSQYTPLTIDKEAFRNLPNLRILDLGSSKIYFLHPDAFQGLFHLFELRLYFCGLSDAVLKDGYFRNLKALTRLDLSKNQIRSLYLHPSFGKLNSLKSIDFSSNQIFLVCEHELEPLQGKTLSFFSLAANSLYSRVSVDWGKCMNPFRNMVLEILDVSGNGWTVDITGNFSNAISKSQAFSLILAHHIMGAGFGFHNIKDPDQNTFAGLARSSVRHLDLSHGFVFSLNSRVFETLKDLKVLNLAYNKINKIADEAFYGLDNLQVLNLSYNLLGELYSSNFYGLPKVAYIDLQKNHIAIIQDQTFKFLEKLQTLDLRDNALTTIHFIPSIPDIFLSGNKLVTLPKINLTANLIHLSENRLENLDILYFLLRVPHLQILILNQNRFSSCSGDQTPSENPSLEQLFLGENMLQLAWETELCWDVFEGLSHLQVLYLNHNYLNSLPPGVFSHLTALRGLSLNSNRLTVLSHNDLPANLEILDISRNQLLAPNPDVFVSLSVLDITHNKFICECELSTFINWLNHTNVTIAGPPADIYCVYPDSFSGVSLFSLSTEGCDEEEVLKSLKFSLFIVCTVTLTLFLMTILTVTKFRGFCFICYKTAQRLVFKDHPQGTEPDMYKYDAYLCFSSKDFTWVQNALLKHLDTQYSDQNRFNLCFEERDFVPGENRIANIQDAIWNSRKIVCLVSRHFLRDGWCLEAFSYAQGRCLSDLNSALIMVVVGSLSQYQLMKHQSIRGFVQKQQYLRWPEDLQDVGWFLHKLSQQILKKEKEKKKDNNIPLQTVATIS
Method: Also, the EC50 was calculated using triplicate OD 620 nm values for each protein concentration over a wide range of protein concentrations (0.0375 nM-19.29 nM at the AAT Bioquest website).

Molecule | cellular uptake in cervical lymph node cells, splenic dendritic cells and BMDCs (FIG. 7) [2] | targeting ability / cellular uptake of the peptides by bone marrow-derived dendritic cells (FIG. 6) (CD11c^+-BMDC) | other results
DCpep6: RFFCLGPLGFTKVD, SEQ ID NO: 6; dendritic cell-targeting peptide discovered by in vivo biopanning (peptide 6, and DCpep6) | remarkably higher specific signals | efficiently targeted; also recorded: remarkably higher efficiency | localization of peptide in cervical lymph node cells (FIG. 8) [1]: clearly localized in the cytoplasm of CD11c^+ cells; cellular uptake in cervical lymph node cells, splenic dendritic cells and BMDCs (FIG. 7) ([2]; listed as DCpep 6): increased cellular uptake
DCpep 3: SPACLDLGLVPWKI, SEQ ID NO: 9; dendritic cell-targeting peptide, Arg replaced by Lys for biotinylation (SPACLDLGLVPWK(Biotin)I) | increased cellular uptake | efficiently targeted | –
DCpep 4: VDLYPCYTFHSKVV, SEQ ID NO: 10; dendritic cell-targeting peptide, Arg replaced by Lys for biotinylation (VDLYPCYTFHSK(Biotin)VV; not fully specified) | increased cellular uptake | efficiently targeted | –
B1 | – | – | tumor suppression (tumor volume, FIGS. 11 and 12) (TC-1 cells): did not manifest any suppressive effect
B2 | – | – | expression of CD80 and CD86 on BMDC surface (FIG. 20) [3]: no statistical significance; cellular uptake in bone marrow-derived dendritic cells (FIG. 14) [4]: scarcely detected; NF-κB activity levels (FIG. 13) (TLR5): increased the activity in dose-dependent manners
